From ChEMBL document CHEMBL1149889, “ent-Kaurane Diterpenoids from Isodon nervosus” (J Nat Prod, 2008)

What was measured:
Assay type in all cases: functional, cell-based
K562 = assay: Cytotoxicity against human K562 cells
HepG2 = assay: Cytotoxicity against human HepG2 cells
A549 = assay: Cytotoxicity against human A549 cells

Compound | IC50 (K562) | IC50 (HepG2) | IC50 (A549)
C=C1[C@@H]2C[C@H](O)[C@H]3[C@@]4(C)[C@H](C[C@H](OC(C)=O)[C@]3(C2)[C@@H]1O)C(C)(C)[C@@H](OC(C)=O)C[C@@H]4O [ADENANTHIN E] | > 100 µM | > 100 µM | > 100 µM
C=C1[C@@H]2C[C@H](OC(C)=O)[C@H]3[C@]4(C)[C@@H](OC(C)=O)C[C@H](O)C(C)(C)[C@H]4C(=O)[C@H](OC(C)=O)[C@]3(C2)[C@@H]1O [ADENANTHIN J] | > 100 µM | > 100 µM | > 100 µM
C=C1[C@@H]2C[C@H](OC(C)=O)[C@H]3[C@]4(C)[C@@H](OC(C)=O)C[C@H](O)C(C)(C)[C@H]4C(=O)[C@H](O)[C@]3(C2)[C@@H]1OC(C)=O [ADENANTHIN K] | > 100 µM | > 100 µM | > 100 µM
C=C1C(=O)[C@]23C[C@H]1C[C@H](OC(C)=O)[C@H]2[C@]1(C)[C@@H](OC(C)=O)C[C@H](O)C(C)(C)[C@H]1C(=O)[C@@H]3OC(C)=O [ADENANTHIN] | 1.05 µM | 0.32 µM | 8.07 µM
C=C1C(=O)[C@]23C[C@H]1C[C@H](OC(C)=O)[C@H]2[C@]1(C)[C@@H](OC(C)=O)C[C@H](O)C(C)(C)[C@H]1[C@@H](OC(C)=O)[C@@H]3OC(C)=O [CALCICOLIN A] | 2.39 µM | 0.51 µM | 12.2 µM
C=C1C(=O)[C@]23C[C@H]1C[C@H](OC(C)=O)[C@H]2[C@@]1(C)[C@H](C(=O)[C@@H]3OC(C)=O)C(C)(C)[C@@H](O)C[C@@H]1O [CALCICOLIN B] | 1.55 µM | 0.52 µM | 8.5 µM
C=C1[C@@H]2C[C@H](O)[C@H]3[C@@]4(C)[C@H]([C@@H](O)[C@H](OC(C)=O)[C@]3(C2)[C@@H]1O)C(C)(C)[C@@H](OC(C)=O)C[C@@H]4O [FORRESTIN B] | > 100 µM | > 100 µM | > 100 µM
C=C1[C@@H]2C[C@H](OC(C)=O)[C@H]3[C@]4(C)[C@@H](OC(C)=O)C[C@H](O)C(C)(C)[C@H]4[C@H](O)[C@H](OC(C)=O)[C@]3(C2)[C@@H]1O [FORRESTIN C] | > 100 µM | > 100 µM | > 100 µM
C=C1[C@@H]2C[C@H](OC(C)=O)[C@H]3[C@]4(C)[C@@H](OC(C)=O)C[C@H](O)[C@]5(C)C[C@@](O)([C@H]54)[C@H](OC(C)=O)[C@]3(C2)[C@@H]1OC(C)=O [NERVONIN A] | > 100 µM | > 100 µM | > 100 µM
C=C1C(=O)[C@]23C[C@H]1C[C@H](OC(C)=O)[C@H]2[C@@]1(C)[C@H]([C@@H](OC(C)=O)[C@@H]3OC(C)=O)C(C)(C)[C@@H](O)C[C@@H]1O [NERVONIN B] | 1.18 µM | 1.16 µM | 1.53 µM
C=C1[C@@H]2C[C@H](OC(C)=O)[C@H]3[C@@]4(C)[C@H](C(=O)[C@H](OC(C)=O)[C@]3(C2)[C@@H]1OC(C)=O)C(C)(C)[C@@H](O)C[C@@H]4O [NERVONIN C] | > 100 µM | > 100 µM | > 100 µM
C=C1[C@@H]2C[C@H](OC(C)=O)[C@H]3[C@]4(C)[C@@H](OC(C)=O)C[C@H](O)C(C)(C)[C@H]4[C@@H](O)[C@H](OC(C)=O)[C@]3(C2)[C@@H]1OC(C)=O [NERVONIN D] | > 100 µM | > 100 µM | > 100 µM
C=C1[C@@H]2C[C@H](OC(C)=O)[C@H]3[C@]4(C)[C@@H](OC(C)=O)C[C@H](O)C(C)(C)[C@H]4C(=O)[C@H](O)[C@]3(C2)[C@@H]1O [NERVONIN E] | > 100 µM | > 100 µM | > 100 µM
C=C1[C@@H]2C[C@H](O)[C@H]3[C@]4(C)[C@@H](OC(C)=O)C[C@H](O)C(C)(C)[C@H]4[C@@H](O)[C@H](OC(C)=O)[C@]3(C2)[C@@H]1O [NERVONIN F] | > 100 µM | > 100 µM | > 100 µM
C=C1[C@@H]2C[C@H](O)[C@H]3[C@]4(C)[C@@H](OC(C)=O)C[C@H](O)C(C)(C)[C@H]4[C@@H](OC(C)=O)[C@H](OC(C)=O)[C@]3(C2)[C@@H]1O [NERVONIN G] | > 100 µM | > 100 µM | > 100 µM
C=C1[C@@H]2C[C@H](OC(C)=O)[C@H]3[C@@]4(C)[C@H](C[C@H](OC(C)=O)[C@]3(C2)[C@@H]1O)C(C)(C)[C@@H](O)C[C@@H]4O [NERVONIN H] | > 100 µM | > 100 µM | > 100 µM
C=C1[C@@H]2C[C@H](OC(C)=O)[C@H]3[C@@]4(C)[C@H]([C@@H](O)[C@H](OC(C)=O)[C@]3(C2)[C@@H]1O)C(C)(C)[C@@H](O)C[C@@H]4O [NERVONIN I] | > 100 µM | > 100 µM | > 100 µM
C=C1[C@@H]2C[C@H](O)[C@@H]3[C@@](CC(=O)[C@@H]4C(C)(C)[C@@H](O)C[C@H](O)[C@]43C)(C2)[C@@H]1OC(C)=O [NERVONIN J] | > 100 µM | > 100 µM | > 100 µM
C=C1[C@@H]2C[C@H](OC(C)=O)[C@H]3[C@]4(C)[C@@H](OC(C)=O)C[C@H](O)C(C)(C)[C@H]4C(=O)[C@H](OC(C)=O)[C@]3(C2)[C@@H]1OC(C)=O [NERVOSANIN] | > 100 µM | > 100 µM | > 100 µM
C=C1C(=O)[C@]23C[C@H]1C[C@H](OC(C)=O)[C@H]2[C@]1(C)[C@@H](OC(C)=O)C[C@H](O)C(C)(C)[C@H]1[C@@H](O)[C@@H]3OC(C)=O [WEISIENSIN A] | 4.11 µM | 1.43 µM | 1.88 µM
